1 compound from patent publication US7652011B2, “4-[(arylmethyl)aminomethyl]piperidine derivatives, their preparation and their therapeutic application” (sanofi-aventis, priority 2003, dated 2010) can be followed below.

SMILES strings stand for the structures.

A word on the melting point: it is the temperature of the solid-liquid transition.

The compound `Cn1cccc1CNCC1(c2cccc(C(F)(F)F)c2)CCN(C(=O)CN2CCN(c3cnccn3)CC2)CC1` [Compound 1, [(1-Methyl-1H-pyrrol-2-yl)methyl][[1-[(4-pyrazin-2-ylpiperazin-1-yl)acetyl]-4-[3-(trifluoromethyl)phenyl]piperidin-4-yl]methyl]amine] gave a melting point of 104 to 105 °C.
